For 19 compounds, IC50 results are on record in patent US9273058B2 (BRISTOL-MYERS SQUIBB COMPANY, priority 2013, dated 2016).

The target of one experiment is CK1ε (Homo sapiens, UniProt P49674). The experiment can be described thus: CK1ε kinase assay (Caliper LabChip electrophoretic separation of fluoresceinated peptide substrate and product). The class given is biochemical. Conditions: 200 pM CK1ε, 50 μM ATP, 1.5 μM peptide, 22 hours at room temperature; read-out: CK1ε IC50 range. In short, it runs like this:
(§1)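 IC50 values were obtained by non-linear regression from eleven-concentration titrations. The kinase reactions were incubated for 22 hours at room temperature before termination with 35 mM EDTA.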

For another experiment, the target named is CK1δ (Homo sapiens, UniProt P48730). Kind of experiment: CK1δ kinase assay (Caliper LabChip electrophoretic separation of fluoresceinated peptide substrate and product). Type of experiment: biochemical. Conditions: 200 pM CK1δ, 50 μM ATP, 1.5 μM peptide, 22 hours at room temperature; read-out: CK1δ IC50 range. In short, it runs like this:
as §1

Sequence of CK1δ (P48730 whole entry): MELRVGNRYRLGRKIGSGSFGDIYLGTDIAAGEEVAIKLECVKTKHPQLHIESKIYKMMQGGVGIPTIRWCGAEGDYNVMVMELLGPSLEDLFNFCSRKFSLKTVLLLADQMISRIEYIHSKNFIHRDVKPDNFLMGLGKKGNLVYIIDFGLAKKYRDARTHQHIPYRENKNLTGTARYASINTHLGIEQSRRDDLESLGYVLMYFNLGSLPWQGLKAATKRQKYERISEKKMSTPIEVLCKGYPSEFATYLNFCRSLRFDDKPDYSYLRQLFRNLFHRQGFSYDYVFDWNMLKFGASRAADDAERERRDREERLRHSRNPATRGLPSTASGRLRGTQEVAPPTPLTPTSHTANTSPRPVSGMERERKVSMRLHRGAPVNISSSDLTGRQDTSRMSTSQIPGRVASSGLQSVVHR
Sequence of CK1ε (P49674 whole entry): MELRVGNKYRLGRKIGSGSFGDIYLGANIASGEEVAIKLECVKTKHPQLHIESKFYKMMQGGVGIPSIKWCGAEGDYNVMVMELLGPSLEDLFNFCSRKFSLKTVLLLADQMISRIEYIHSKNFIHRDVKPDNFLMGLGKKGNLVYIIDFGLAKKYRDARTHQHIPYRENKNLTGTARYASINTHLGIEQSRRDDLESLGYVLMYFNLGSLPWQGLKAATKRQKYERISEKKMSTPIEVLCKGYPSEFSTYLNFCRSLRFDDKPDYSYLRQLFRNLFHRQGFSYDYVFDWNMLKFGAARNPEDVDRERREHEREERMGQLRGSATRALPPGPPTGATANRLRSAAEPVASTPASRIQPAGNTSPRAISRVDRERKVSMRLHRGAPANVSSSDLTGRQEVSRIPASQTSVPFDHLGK

For orientation: IC50 means the midpoint of a concentration-inhibition curve. For the compound `NC(=O)c1c(-c2ccc(Cl)c(Cl)c2)nn2c1CN(C(=O)NC1CC(C(F)F)C1)CC2` (centres unmarked) [Compound 254, 2-(3,4-Dichlorophenyl)-N^5-(3-(difluoromethyl)cyclobutyl)-6,7-dihydropyrazolo[1,5-a]pyrazine-3,5(4H)-dicarboxamide], the IC50 at CK1ε and on CK1δ was 0.01 to 10 nM each time.
`NC(=O)c1c(-c2ccc(Cl)c(Cl)c2)nn2c1CN(C(=O)NC1CC(C(F)F)C1)CC2` (centres unmarked) [Compound 255, 2-(3,4-Dichlorophenyl)-N^5-(3-(difluoromethyl)cyclobutyl)-6,7-dihydropyrazolo[1,5-a]pyrazine-3,5(4H)-dicarboxamide]: the IC50 on CK1ε and at CK1δ was 0.01 to 10 nM throughout.
With `CC1(NC(=O)N2CCn3nc(-c4ccc(F)c(Cl)c4)c(C(N)=O)c3C2)CC(O)C1` (centres unmarked) [Compound 260, 2-(3-Chloro-4-fluorophenyl)-N^5-(3-hydroxy-1-methylcyclobutyl)-6,7-dihydropyrazolo[1,5-a]pyrazine-3,5(4H)-dicarboxamide], the 50% inhibitory concentration (IC50) on CK1ε and at CK1δ was 0.01 to 10 nM each time.
As to `NC(=O)c1c(-c2ccc(F)c(Cl)c2)nn2c1CN(C(=O)N[C@H]1C[C@@H](OC(F)(F)F)C1)CC2` [Compound 261, 2-(3-Chloro-4-fluorophenyl)-N^5-((1r,3r)-3-(trifluoromethoxy)cyclobutyl)-6,7-dihydropyrazolo[1,5-a]pyrazine-3,5(4H)-dicarboxamide], the IC50 on CK1ε and on CK1δ was 0.01 to 10 nM throughout.
As for `NC(=O)c1c(-c2cccc(Cl)c2)nn2c1CN(C(=O)N[C@H]1C[C@@H](OC(F)(F)F)C1)CC2` [Compound 262, 2-(3-Chlorophenyl)-N^5-((1r,3r)-3-(trifluoromethoxy)cyclobutyl)-6,7-dihydropyrazolo[1,5-a] pyrazine-3,5(4H)-dicarboxamide], the half-maximal inhibitory concentration (IC50) on CK1ε and on CK1δ was 0.01 to 10 nM each time.
In the case of `NC(=O)c1c(-c2ccc(Cl)c(Cl)c2)nn2c1CN(C(=O)N[C@H]1C[C@@H](OC(F)(F)F)C1)CC2` [Compound 263, 2-(3,4-Dichlorophenyl)-N^5-((1r,3r)-3-(trifluoromethoxy)cyclobutyl)-6,7-dihydropyrazolo[1,5-a] pyrazine-3,5(4H)-dicarboxamide], the 50% inhibitory concentration (IC50) on CK1ε and on CK1δ was 0.01 to 10 nM each time.
Regarding `NC(=O)c1c(-c2ccc(F)c(Cl)c2)nn2c1CN(C(=O)N[C@H]1C[C@H](OC(F)(F)F)C1)CC2` [Compound 264, 2-(3-Chloro-4-fluorophenyl)-N^5-((1r,3r)-3-(trifluoromethoxy)cyclobutyl)-6,7-dihydropyrazolo[1,5-a]pyrazine-3,5(4H)-dicarboxamide], the IC50 on CK1ε and at CK1δ was 0.01 to 10 nM throughout.
With `N#Cc1ccc(O[C@H]2C[C@H](NC(=O)N3CCn4nc(-c5ccc(F)c(Cl)c5)c(C(N)=O)c4C3)C2)cc1` [Compound 266, 2-(3-Chloro-4-fluorophenyl)-N^5-((1r,3r)-3-(4-cyanophenoxyl)cyclobutyl)-6,7-dihydropyrazolo[1,5-a]pyrazine-3,5(4H)-dicarboxamide], the IC50 at CK1ε and on CK1δ was 0.01 to 10 nM in each case.
As to `N#Cc1ccc(O[C@H]2C[C@H](NC(=O)N3CCn4nc(-c5cccc(Cl)c5)c(C(N)=O)c4C3)C2)cc1` [Compound 267, 2-(3-Chlorophenyl)-N^5-((1r,3r)-3-(4-cyanophenoxy)cyclobutyl)-6,7-dihydropyrazolo[1,5-a] pyrazine-3,5(4H)-dicarboxamide], the IC50 on CK1ε and at CK1δ was 0.01 to 10 nM in each case.
Take `CS[C@H]1C[C@@H](NC(=O)N2CCn3nc(-c4ccc(F)c(Cl)c4)c(C(N)=O)c3C2)C1` [Compound 269, 2-(3-Chloro-4-fluorophenyl)-N^5-((1s,3s)-3-(methylthio)cyclobutyl)-6,7-dihydropyrazolo[1,5-a]pyrazine-3,5(4H)-dicarboxamide]: the IC50 on CK1ε and on CK1δ was 0.01 to 10 nM each time.
For `CS[C@H]1C[C@@H](NC(=O)N2CCn3nc(-c4cccc(Cl)c4)c(C(N)=O)c3C2)C1` [Compound 270, 2-(3-Chlorophenyl)-N^5-((1s,3s)-3-(methylthio)cyclobutyl)-6,7-dihydropyrazolo[1,5-a] pyrazine-3,5(4H)-dicarboxamide], the IC50 at CK1ε and at CK1δ was 0.01 to 10 nM in each case.
For `CS[C@H]1C[C@@H](NC(=O)N2CCn3nc(-c4ccc(Cl)c(Cl)c4)c(C(N)=O)c3C2)C1` [Compound 271, 2-(3,4-Dichlorophenyl)-N^5-((1s,3s)-3-(methylthio)cyclobutyl)-6,7-dihydropyrazolo[1,5-a] pyrazine-3,5(4H)-dicarboxamide], the IC50 at CK1ε and at CK1δ was 0.01 to 10 nM throughout.
With `CS(=O)(=O)[C@H]1C[C@@H](NC(=O)N2CCn3nc(-c4ccc(F)c(Cl)c4)c(C(N)=O)c3C2)C1` [Compound 272, 2-(3-Chloro-4-fluorophenyl)-N^5-((1s,3s)-3-(methylsulfonyl)cyclobutyl)-6,7-dihydropyrazolo[1,5-a]pyrazine-3,5(4H)-dicarboxamide], the 50% inhibitory concentration (IC50) on CK1ε and on CK1δ was 0.01 to 10 nM throughout.
For the compound `CS(=O)(=O)[C@H]1C[C@@H](NC(=O)N2CCn3nc(-c4cccc(Cl)c4)c(C(N)=O)c3C2)C1` [Compound 273, 2-(3-Chlorophenyl)-N^5-((1s,3s)-3-(methylsulfonyl)cyclobutyl)-6,7-dihydropyrazolo[1,5-a] pyrazine-3,5(4H)-dicarboxamide], the IC50 on CK1ε and at CK1δ was 0.01 to 10 nM throughout.
On to `CS(=O)(=O)[C@H]1C[C@@H](NC(=O)N2CCn3nc(-c4ccc(Cl)c(Cl)c4)c(C(N)=O)c3C2)C1` [Compound 274, 2-(3,4-Dichlorophenyl)-N^5-((1s,3s)-3-(methylsulfonyl)cyclobutyl)-6,7-dihydropyrazolo[1,5-a] pyrazine-3,5(4H)-dicarboxamide], for which the IC50 at CK1ε and at CK1δ was 0.01 to 10 nM in each case.
As to `C[C@]1(NC(=O)N2CCn3nc(-c4ccc(F)c(Cl)c4)c(C(N)=O)c3C2)C[C@H](F)C1` [Compound 275, 2-(3-Chloro-4-fluorophenyl)-N^5-((1r,3r)-3-fluoro-1-methylcyclobutyl)-6,7-dihydropyrazolo[1,5-a]pyrazine-3,5(4H)-dicarboxamide], the IC50 on CK1ε and on CK1δ was 0.01 to 10 nM each time.
In the case of `NC(=O)c1c(-c2ccc(F)c(Cl)c2)nn2c1CN(C(=O)N[C@H]1C[C@@H](c3ccc(F)cc3)C1)CC2` [Compound 276, 2-(3-Chloro-4-fluorophenyl)-N^5-((1s,3s)-3-(4-fluorophenyl)cyclobutyl)-6,7-dihydropyrazolo[1,5-a]pyrazine-3,5(4H)-dicarboxamide], the IC50 at CK1ε and on CK1δ was 0.01 to 10 nM in each case.
`NC(=O)c1c(-c2cccc(Cl)c2)nn2c1CN(C(=O)N[C@H]1C[C@@H](c3ccc(F)cc3)C1)CC2` [Compound 277, 2-(3-Chlorophenyl)-N^5-((1s,3s)-3-(4-fluorophenyl)cyclobutyl)-6,7-dihydropyrazolo[1,5-a] pyrazine-3,5(4H)-dicarboxamide]: the IC50 at CK1ε and on CK1δ was 0.01 to 10 nM throughout.
Regarding `NC(=O)c1c(-c2ccc(Cl)c(Cl)c2)nn2c1CN(C(=O)N[C@H]1C[C@@H](c3ccc(F)cc3)C1)CC2` [Compound 278, 2-(3,4-Dichlorophenyl)-N^5-((1s,3s)-3-(4-fluorophenyl)cyclobutyl)-6,7-dihydropyrazolo[1,5-a] pyrazine-3,5(4H)-dicarboxamide], the IC50 on CK1ε and at CK1δ was 0.01 to 10 nM each time.
